# From patent publication US20190261630A1, “USE OF PYRAZIFLUMID FOR CONTROLLING SCLEROTINIA SPP IN SEED TREATMENT APPLICATIONS” (Bayer CropScience Aktiengesellschaft, priority 2016, published 2019)
# Like-named read-outs stand apart in the source and are kept apart here.
# Key:
# Type in all cases: in vivo
# soybean plants [1] = test: Damage on plants after seed treatment, relative growth inhibition in non-inoculated plants (Example A, Tests 1-6)
# Description: (§1) The test is performed under greenhouse conditions.
# (§2) Soybean seeds, treated to the desired dosages with the active compound solved in N-methyl-2-pyrrolidon and diluted with water, were sown in 6×6 cm pots (one seed per pot) filled with 1:1 mixture of steamed loam soil and quartz sand.
# (§3) The plants were grown at 24° C. and 90% relative humidity in a greenhouse. Ascospores of Sclerotinia sclerotiorum were collected from 3 month old asci. Whole aerial surface of 19-25-day-old seedlings were sprayed with water suspension of the ascospores. The plants were kept for 48-96 hours in the dark at 24° C. and a relative humidity of 99%.
# Sclerotinia sclerotiorum [2] = test: Seed treatment test, control efficacy against ascospore infection in soybean, greenhouse (Example A, Tests 1-6); conditions: for pest or weed control at 70 g/100 kg seed / pest or weed control at 140 g/100 kg seed / pest or weed control at 35 g/100 kg seed: read-out: Sclerotinia sclerotiorum Control efficacy %; for pest or weed control at 10 g/100 kg seed: soybean seed treatment 10 g a.i./100 kg seed; for pest or weed control at 25 g/100 kg seed: soybean seed treatment 25 g a.i./100 kg seed; for pest or weed control at 50 g/100 kg seed: soybean seed treatment 50 g a.i./100 kg seed
# Description: as §1, §2, §3
# (§4) Assessment consisted of evaluation of infected area of the unifoliate leaves. Zero % means infection which corresponds to that of the untreated check, while an efficacy of 100% means that no infection was observed.
# The control efficacy is based on % infected leaf area.
# Moreover, the tests were performed with different batches of plants.
# Sclerotinia sclerotiorum [3] = test: Spray test (dwarf beans), preventive control efficacy (Example B, Test 7); conditions: spray treatment 100 mg ai/Liter, dwarf bean, 10 days old plants, incubation 3 days
# Description: (§5) Solvent: 24.5 parts by weight of acetone • 24.5 parts by weight of dimethylacetamide
# (§6) Emulsifier: 1 part by weight of alkylaryl polyglycol ether
# (§7) To produce a suitable preparation of active compound, 1 part by weight of active compound is mixed with the stated amounts of solvent and emulsifier, and the concentrate is diluted with water to the desired concentration.
# (§8) To test for preventive activity, unifoliate leaves of 10 day-old plants are sprayed with the preparation of active compound. After the spray coating has dried on, 2 small pieces of agar covered with growth of Sclerotinia sclerotiorum are placed on each leaf. The inoculated plants are placed in a darkened chamber at approximately 20° C. and a relative atmospheric humidity of 100%.
# 3 days after the inoculation, the size of the lesions on the leaves is evaluated. 0% means an efficacy which corresponds to that of the untreated control, while an efficacy of 100% means that no disease is observed.
# Sclerotinia sclerotiorum [4] = test: Seed treatment test (soybean) with current standards, control efficacy (Example B, Test 8); conditions: soybean seed treatment 50 g a.i./100 kg seed, incubation 3 days, inoculation 27 days after sowing
# Description: as §2
# as §3, with “27 day-old” for “19-25-day-old”, “72” for “48-96”
# as §4
# dwarf beans = test: Damage on plants in spray test (Example B, Test 7); conditions: spray treatment 100 mg ai/Liter, dwarf bean
# Description: as §5, §6, §7, §8
# soybean plants [5] = test: Damage on plants after seed treatment, emergence inhibition (Example B, Test 8); conditions: soybean seed treatment 50 g a.i./100 kg seed
# Description: as §2
# as §3, with “27 day-old” for “19-25-day-old”, “72” for “48-96”
# [6] = Test 6, soybean seed treatment 70 g a.i./100 kg seed
# [7] = Test 6, soybean seed treatment 140 g a.i./100 kg seed
# [8] = Sclerotinia sclerotiorum, 72 h, Test 6, soybean seed treatment 70 g a.i./100 kg seed, incubation 3 days, inoculation 22 days after sowing
# [9] = Sclerotinia sclerotiorum, 72 h, Test 6, soybean seed treatment 140 g a.i./100 kg seed, incubation 3 days, inoculation 22 days after sowing
# [10] = Sclerotinia sclerotiorum, 48 h, Test 5, incubation 2 days, inoculation 21 days after sowing
# [11] = Example A, soybean seed treatment
# [12] = Test 1, soybean seed treatment 25 g a.i./100 kg seed
# [13] = Test 1, soybean seed treatment 50 g a.i./100 kg seed
# [14] = Test 3, soybean seed treatment 70 g a.i./100 kg seed
# [15] = Sclerotinia sclerotiorum, 48 h, Test 3, soybean seed treatment 70 g a.i./100 kg seed, incubation 2 days, inoculation 20 days after sowing
# [16] = Sclerotinia sclerotiorum, 48 h, Test 3, soybean seed treatment 140 g a.i./100 kg seed, incubation 2 days, inoculation 20 days after sowing
# [17] = Sclerotinia sclerotiorum, 72 h, Test 1, incubation 3 days, inoculation 19 days after sowing
# [18] = Sclerotinia sclerotiorum, 96 h, Test 4, incubation 4 days, inoculation 25 days after sowing
# [19] = Sclerotinia sclerotiorum, 48 h, Test 3, incubation 2 days, inoculation 20 days after sowing
# [20] = Sclerotinia sclerotiorum, 72 h, Test 6, incubation 3 days, inoculation 22 days after sowing
structure (smiles),measurement,setting,value
CC1(C)N=C(c2cnc3ccccc3c2)c2ccccc2C1(F)F [Quinofumelin],Damage on plants (relative growth inhibition in non-inoculated plants compared to untreated plants: in %),soybean plants [1]; [6],0%
same,Damage on plants (relative growth inhibition in non-inoculated plants compared to untreated plants: in %),soybean plants [1]; [7],0%
same,pest or weed control at 70 g/100 kg seed,Sclerotinia sclerotiorum [2]; [8],16%
same,pest or weed control at 140 g/100 kg seed,Sclerotinia sclerotiorum [2]; [9],1%
CON(C(=O)c1cn(C)nc1C(F)F)C(C)Cc1c(Cl)cc(Cl)cc1Cl (centres unmarked) [pydiflumetofen],Sclerotinia sclerotiorum Control efficacy %,Sclerotinia sclerotiorum [3],100%
same,Sclerotinia sclerotiorum Control efficacy %,Sclerotinia sclerotiorum [4],0%
same,Damage on plants (in %),dwarf beans,0%
same,Damage on plants (emergence inhibition in %),soybean plants [5],0%
O=C(NCCc1ncc(C(F)(F)F)cc1Cl)c1ccccc1C(F)(F)F [fluopyram],Sclerotinia sclerotiorum Control efficacy %,Sclerotinia sclerotiorum [3],100%
same,Sclerotinia sclerotiorum Control efficacy %,Sclerotinia sclerotiorum [4],68%
same,Damage on plants (in %),dwarf beans,0%
same,Damage on plants (emergence inhibition in %),soybean plants [5],25%
CC(O)(Cn1cncn1)c1ccc(Oc2ccc(Cl)cc2)cc1C(F)(F)F (centres unmarked) [Mefentrifluconazole],Damage on plants (relative growth inhibition in non-inoculated plants compared to untreated plants: in %),"soybean plants [1]; Test 5, soybean seed treatment 10 g a.i./100 kg seed",0%
same,Damage on plants (relative growth inhibition in non-inoculated plants compared to untreated plants: in %),"soybean plants [1]; Test 5, soybean seed treatment 25 g a.i./100 kg seed",10%
same,pest or weed control at 10 g/100 kg seed,Sclerotinia sclerotiorum [2]; [10],90%
same,pest or weed control at 25 g/100 kg seed,Sclerotinia sclerotiorum [2]; [10],84%
O=C(Nc1ccccc1-c1ccc(F)c(F)c1)c1nccnc1C(F)(F)F [Pyraziflumid],damage on soybean plants (in words),soybean plants [1]; [11],without giving any damage
same,Damage on plants (relative growth inhibition in non-inoculated plants compared to untreated plants: in %),soybean plants [1]; [12],0%
same,Damage on plants (relative growth inhibition in non-inoculated plants compared to untreated plants: in %),soybean plants [1]; [13],0%
same,Damage on plants (relative growth inhibition in non-inoculated plants compared to untreated plants: in %),"soybean plants [1]; Test 2, soybean seed treatment 70 g a.i./100 kg seed",0%
same,Damage on plants (relative growth inhibition in non-inoculated plants compared to untreated plants: in %),"soybean plants [1]; Test 2, soybean seed treatment 140 g a.i./100 kg seed",0%
same,Damage on plants (relative growth inhibition in non-inoculated plants compared to untreated plants: in %),soybean plants [1]; [14],0%
same,Damage on plants (relative growth inhibition in non-inoculated plants compared to untreated plants: in %),"soybean plants [1]; Test 3, soybean seed treatment 140 g a.i./100 kg seed",0%
same,Damage on plants (relative growth inhibition in non-inoculated plants compared to untreated plants: in %),"soybean plants [1]; Test 4, soybean seed treatment 70 g a.i./100 kg seed",0%
same,Damage on plants (relative growth inhibition in non-inoculated plants compared to untreated plants: in %),"soybean plants [1]; Test 4, soybean seed treatment 140 g a.i./100 kg seed",0%
same,Damage on plants (relative growth inhibition in non-inoculated plants compared to untreated plants: in %),"soybean plants [1]; Test 5, soybean seed treatment 75 g a.i./100 kg seed",0%
same,Damage on plants (relative growth inhibition in non-inoculated plants compared to untreated plants: in %),soybean plants [1]; [6],0%
same,Damage on plants (relative growth inhibition in non-inoculated plants compared to untreated plants: in %),soybean plants [1]; [7],30%
same,control efficacy against ascospore infection of Sclerotinia Sclerotiorum (in words),Sclerotinia sclerotiorum [2]; [11],excellent control efficacy
same,pest or weed control at 70 g/100 kg seed,Sclerotinia sclerotiorum [2]; [15],87%
same,pest or weed control at 140 g/100 kg seed,Sclerotinia sclerotiorum [2]; [16],95%
same,pest or weed control at 75 g/100 kg seed,"Sclerotinia sclerotiorum [2]; Sclerotinia sclerotiorum, 48 h, Test 5, soybean seed treatment 75 g a.i./100 kg seed, incubation 2 days, inoculation 21 days after sowing",98%
same,pest or weed control at 25 g/100 kg seed,Sclerotinia sclerotiorum [2]; [17],96%
same,pest or weed control at 50 g/100 kg seed,Sclerotinia sclerotiorum [2]; [17],95%
same,pest or weed control at 70 g/100 kg seed,Sclerotinia sclerotiorum [2]; [8],36%
same,pest or weed control at 140 g/100 kg seed,Sclerotinia sclerotiorum [2]; [9],33%
same,pest or weed control at 70 g/100 kg seed,"Sclerotinia sclerotiorum [2]; Sclerotinia sclerotiorum, 96 h, Test 2, soybean seed treatment 70 g a.i./100 kg seed, incubation 4 days, inoculation 22 days after sowing",58%
same,pest or weed control at 140 g/100 kg seed,"Sclerotinia sclerotiorum [2]; Sclerotinia sclerotiorum, 96 h, Test 2, soybean seed treatment 140 g a.i./100 kg seed, incubation 4 days, inoculation 22 days after sowing",86%
same,pest or weed control at 70 g/100 kg seed,"Sclerotinia sclerotiorum [2]; Sclerotinia sclerotiorum, 96 h, Test 4, soybean seed treatment 70 g a.i./100 kg seed, incubation 4 days, inoculation 25 days after sowing",80%
same,pest or weed control at 140 g/100 kg seed,"Sclerotinia sclerotiorum [2]; Sclerotinia sclerotiorum, 96 h, Test 4, soybean seed treatment 140 g a.i./100 kg seed, incubation 4 days, inoculation 25 days after sowing",90%
N#Cc1ccccc1NC(=O)c1snc(Cl)c1Cl [Isotianil],Damage on plants (relative growth inhibition in non-inoculated plants compared to untreated plants: in %),"soybean plants [1]; Test 3, soybean seed treatment 35 g a.i./100 kg seed",11%
same,Damage on plants (relative growth inhibition in non-inoculated plants compared to untreated plants: in %),soybean plants [1]; [14],0%
same,Damage on plants (relative growth inhibition in non-inoculated plants compared to untreated plants: in %),"soybean plants [1]; Test 6, soybean seed treatment 35 g a.i./100 kg seed",0%
same,Damage on plants (relative growth inhibition in non-inoculated plants compared to untreated plants: in %),soybean plants [1]; [6],0%
same,pest or weed control at 35 g/100 kg seed,"Sclerotinia sclerotiorum [2]; Sclerotinia sclerotiorum, 48 h",46%
same,pest or weed control at 70 g/100 kg seed,"Sclerotinia sclerotiorum [2]; Sclerotinia sclerotiorum, 48 h",65%
same,pest or weed control at 35 g/100 kg seed,"Sclerotinia sclerotiorum [2]; Sclerotinia sclerotiorum, 72 h",15%
same,pest or weed control at 70 g/100 kg seed,"Sclerotinia sclerotiorum [2]; Sclerotinia sclerotiorum, 72 h",18%
O=S(=O)(Nc1ncc(C(F)(F)F)cc1Cl)c1ccccc1Cl,Damage on plants (relative growth inhibition in non-inoculated plants compared to untreated plants: in %),"soybean plants [1]; Test 4, soybean seed treatment 10 g a.i./100 kg seed",17%
same,Damage on plants (relative growth inhibition in non-inoculated plants compared to untreated plants: in %),"soybean plants [1]; Test 4, soybean seed treatment 50 g a.i./100 kg seed",8%
same,pest or weed control at 10 g/100 kg seed,Sclerotinia sclerotiorum [2]; [18],73%
same,pest or weed control at 50 g/100 kg seed,Sclerotinia sclerotiorum [2]; [18],70%
CC1(C)N=C(c2cnc3ccccc3c2)c2ccccc2C1(F)F [drawing 23],pest or weed control at 70 g/100 kg seed,Sclerotinia sclerotiorum [2]; [15],72%
same,pest or weed control at 140 g/100 kg seed,Sclerotinia sclerotiorum [2]; [16],96%
O=c1c2cc(F)ccc2nc(-n2cncn2)n1-c1ccc(Cl)cc1Cl [Fluquinconazole],Damage on plants (relative growth inhibition in non-inoculated plants compared to untreated plants: in %),"soybean plants [1]; Test 3, soybean seed treatment 25 g a.i./100 kg seed",0%
same,Damage on plants (relative growth inhibition in non-inoculated plants compared to untreated plants: in %),"soybean plants [1]; Test 3, soybean seed treatment 50 g a.i./100 kg seed",0%
same,Damage on plants (relative growth inhibition in non-inoculated plants compared to untreated plants: in %),"soybean plants [1]; Test 6, soybean seed treatment 25 g a.i./100 kg seed",0%
same,Damage on plants (relative growth inhibition in non-inoculated plants compared to untreated plants: in %),"soybean plants [1]; Test 6, soybean seed treatment 50 g a.i./100 kg seed",0%
same,pest or weed control at 25 g/100 kg seed,Sclerotinia sclerotiorum [2]; [19],83%
same,pest or weed control at 50 g/100 kg seed,Sclerotinia sclerotiorum [2]; [19],86%
same,pest or weed control at 25 g/100 kg seed,Sclerotinia sclerotiorum [2]; [20],0%
same,pest or weed control at 50 g/100 kg seed,Sclerotinia sclerotiorum [2]; [20],2%
CC(C)ON=C(CNC(=O)c1ccccc1C(F)(F)F)c1ncc(Cl)cc1Cl,Damage on plants (relative growth inhibition in non-inoculated plants compared to untreated plants: in %),soybean plants [1]; [12],0%
same,Damage on plants (relative growth inhibition in non-inoculated plants compared to untreated plants: in %),soybean plants [1]; [13],0%
same,pest or weed control at 25 g/100 kg seed,Sclerotinia sclerotiorum [2]; [17],5%
same,pest or weed control at 50 g/100 kg seed,Sclerotinia sclerotiorum [2]; [17],53%
Cc1nc2c(F)c(F)ccc2cc1Oc1cccc(F)c1C(C)(C)O,pest or weed control at 70 g/100 kg seed,"Sclerotinia sclerotiorum [2]; Sclerotinia sclerotiorum, 96 h",0%
same,pest or weed control at 140 g/100 kg seed,"Sclerotinia sclerotiorum [2]; Sclerotinia sclerotiorum, 96 h",99%
